{
  "source": "patent US20080267909A1",
  "about": "“PHAGOCYTE ENHANCEMENT THERAPY FOR ATHEROSCLEROSIS” (THE TRUSTEES OF COLUMBIA UNIVERSITY IN THE CITY OF NEW YORK, priority 2005, published 2008)",
  "molecules": {"B1": {"name": "interleukin-4: cytokine that promotes alternative activation of macrophages (protein, UniProt P05112 25-153, looked up)", "Interleukin-4": "HKCDITLQEIIKTLNSLTEQKTLCTELTVTDIFAASKNTTEKETFCRAATVLRQFYSHHEKDTRCLGATAQQFHRHKQLIRFLKRLDRNLWGLAGLNSCPVKEANQSTLENFLERLKTIMREKYSKCSS"}},
  "key": {"[1]": {"system": "FC-induced apoptotic macrophages", "details": "phagocytes pre-treated with 100 μM for 15 minutes; compared to untreated phagocytes; FIG. 2", "protocol": "Briefly, mouse peritoneal macrophages were labeled with the fluorophore calcein-AM (green) and then FC-loaded to induced apoptosis. Some of the macrophages were not FC-loaded, thus serving as a non-apoptotic control. The macrophages were added to a monolayer of octadecylrhodamine-labeled (red) macrophage phagocytes for 30 minutes at 37° C. The monolayers were then thoroughly rinsed with phosphate buffered saline (PBS). […] The percentage of rhodamine-labeled phagocytes with green inclusion was determined and quantified. Inclusion of green indicated the uptake of apoptotic cells into the phagocytes."}, "[2]": {"system": "cholesterol trafficking to ACAT in the ER", "test": "Whole-cell cholesterol esterification assay in phagocytes after ingestion of FC-AMs", "type": "cell-based, mouse", "details": "1 μM during the post-ingestion period; FIG. 7", "method": "FIG. 7 is a bar graph depicting the results of experiments in which macrophages were incubated for 18 hours in medium alone (i.e., no exposure to FC-AMs) or in the same medium for the indicated time points after ingestion of FC-AMs. All of the incubations contained [^14C]oleate, and some of the phagocytes were incubated with 1 μM U18666A during the post-ingestion period to block cholesterol trafficking to the endoplasmic reticulum (ER). To make sure that the phagocytes would not be exposed to residual ACAT inhibitor in the FC-AMs, the FC-AMs for this experiment were generated by incubating macrophages from Acat1−/− mice with AcLDL without ACAT inhibitor. After the indicated time points, the macrophages were assayed for cholesteryl [^14C]oleate formation as an indicator of cholesterol trafficking to ACAT in the ER.\nAfter a 30 minute incubation of phagocytes with FC-AMs that were made using acetyl-LDL and macrophages from Acat1^−/− mice (i.e., no ACAT inhibitor), non-ingested apoptotic cells were removed, and the phagocytes were incubated in fresh medium containing [^14C]oleate for specific times. […] Cholesterol esterification activity was then determined in lipid extracts of the cells by measuring the cellular content of cholesteryl [^14C]oleate by thin-layer chromatography (Tabas et al., 1987, J. Clin. Invest. 79:418-426). […]"}, "[3]": {"system": "UV-induced apoptotic J774 macrophages", "test": "Phagocytosis of UV-induced apoptotic J774 macrophages by J744 murine macrophages (Example 4)", "type": "cell-based", "details": "10 μM, one hour pre-treatment, 45 minutes; vs untreated; FIG. 5", "method": "In a similar experiment, J744 murine macrophages (phagocytes) were pretreated in the presence of absence of the ROCK inhibitor fasudil (10 μM) for one hour. The phagocytes were then incubated for 45 minutes, with or without fasudil, with fluorescently labeled UV-induced apoptotic J774 macrophages (“UV-Ams”). The percentage of phagocytes that had engulfed at least one UV-AM was quantified using fluorescent microscopy. […] Such compounds are useful for treating cardiovascular disease."}, "[4]": {"system": "ingesting phagocytes (IPs)", "test": "Apoptosis in phagocytes that had ingested FC-AMs, incubated with SRA ligand", "type": "cell-based, mouse", "method": "(§1) FC-AMs were removed from the culture dish and cultured for 30 minutes with a monolayer of fresh macrophages (“phagocytes”) at an approximate ratio of 1:5 (FC-AMs:phagocytes). In certain experiments, the FC-AMs were labeled with Alexa Fluor 488 annexin V or Calcium Green™-AM for 20 minutes prior to addition to the phagocytes in order to mark those phagocytes that had ingested the FC-AMs (“ingesting phagocytes,” or “IPs”). The non-ingested apoptotic cells were then removed by thorough rinsing as described in Li et al. (2006, J. Biol. Chem. 281:6707-6717), and the phagocytes were incubated in fresh medium for the indicated times. In some experiments, the phagocytes were incubated during the post-ingestion incubation in medium containing acetyl-LDL and 58035 to maintain FC levels in the (ingesting phagocytes) IPs, inhibitors of Akt or NFκB, or various combinations of these reagents. To assay apoptosis in the phagocytes, the cells were stained with Alexa Fluor 594 annexin V and viewed by fluorescence microscopy. For quantification, 4-6 representative fields of cells at 40× magnification were counted to determine the number of apoptotic phagocytes and total phagocytes for each condition.\nFC-induced apoptosis in macrophages requires UPR activation in combination with engagement of the type A scavenger receptor (SRA), both of which occur with acetyl-LDL-induced FC loading. […]"}, "[5]": {"system": "ingesting phagocytes (IPs) and non-IPs", "test": "UV-induced apoptosis (annexin V) in IPs and non-IPs", "type": "cell-based, mouse", "details": "10 μM inhibitor, 8 hour incubation after UV irradiation, FIG. 12"}, "[6]": {"system": "ingesting phagocytes (IPs) and non-IPs", "test": "FC-induced apoptosis (annexin V) in IPs and non-IPs during 20 hour post-ingestion FC-loading", "type": "cell-based, mouse", "details": "10 μM inhibitor; for apoptosis in IPs: 20 hours in FC-loading medium, FIG. 10A", "method": "FIG. 10A is a bar graph depicting the results of experiments in which the protocol described in FIG. 9C was used and the percent apoptosis was determined in non-IPs (cross-hatched bars) and IPs (black bars) that were incubated for 20 hours in FC-loading medium either in the absence or presence of 10 μM of the IKK inhibitor PS1145, 10 μM of the PI-3 kinase/Akt inhibitor […], or both compounds.\nas §1\nBecause NFκB is known to signal survival responses in cells, the functional significance of NFκB signaling in the survival response of IPs against FC-induced apoptosis was investigated. […] The NFkB and Akt survival pathways might represent independent, complementary survival pathways or they may signal through a common final mediator. […]"}, "apoptotic J774 cells": {"system": "apoptotic J774 cells", "test": "Phagocytic uptake of apoptotic J774 cells by peritoneal macrophages, ROCK inhibitor (Example 4)", "type": "cell-based", "details": "10 μM, one hour pre-treatment, 45 minutes with apoptotic cells; vs untreated; FIG. 4", "method": "As discussed in Example 6, statins can inhibit RhoA activation. RhoA activation inhibits phagocytic clearance of apoptotic cells and so inhibitors of RhoA or the downstream RhoA effector, Rho kinase (ROCK) can enhance or at least contribute to limit or decrease Rho-mediated inhibition of phagocytic clearance. […] In these experiments, peritoneal macrophages (phagocytes) were treated for one hour in the presence or absence of 10 μM Y-27632. Calcein-AM-labeled (green) apoptotic J774 cells (UV-irradiated) were then added to the phagocytes at a ratio of 1:1, in the absence or presence of Y-27632. After 45 minutes, non-internalized cells were removed by rinsing, and the percentage of phagocytes that had internalized labeled apoptotic macrophages was quantified by fluorescence microscopy. Results are depicted in FIG. 4 as the as the mean ±SEM; n=3 fields of cells, each containing approximately 150 cells."}, "[7]": {"system": "UV-irradiated apoptotic J774 cells", "test": "Efferocytosis of UV-irradiated apoptotic J774 cells by cytokine pre-treated primary efferocytes", "type": "cell-based", "details": "pre-treated about 24 hours, challenged 30 minutes; FIG. 17", "method": "FIG. 17. Primary efferocytes were pre-treated with the indicated cytokine for about 24 hours and then challenged for 30 minutes with UV-irradiated apoptotic J774 cells and the percent efferocytosis was determined.\nThus, drugs that mimic this effect can promote the uptake of apoptotic macrophages in advanced atherosclerotic lesions (see in allergic, cellular and humoral responses to parasitic and extracellular pathogens (see Nat Rev Immunol. 2003 January;3(1):23-35)."}},
  "data": [
    {"molecule": "CCN(CC)CC.Nc1ncnc2c1ncn2C1OC2COP(O)(=S)OC2C1O", "note": "(single isomer, unassigned) [PKA inhibitor, adenosine 3′,5′-cyclic monophosphorothioate, Rp-isomer, triethylammonium salt]", "values": [
      {"measurement": "percentage of rhodamine-labeled phagocytes with green inclusion (uptake of FC-induced apoptotic macrophages)", "setting": "[1]", "value": "internalized more FC-induced apoptotic macrophages than untreated phagocytes"}
    ]},
    {"molecule": "CCN(CC)CCO[C@H]1CC[C@@]2(C)C(=CC[C@@H]3[C@@H]2CC[C@]2(C)C(=O)CC[C@@H]32)C1", "note": "[U18666A]", "values": [
      {"measurement": "FC-AM-induced increase in cholesterol esterification (cholesteryl [14C]oleate formation)", "setting": "[2]", "value": "completely blocked"}
    ]},
    {"molecule": "O=S(=O)(c1cccc2cnccc12)N1CCCNCC1", "note": "[fasudil]", "values": [
      {"measurement": "percentage phagocytosis (phagocytes that had engulfed at least one UV-AM)", "setting": "[3]", "value": "increased"}
    ]},
    {"molecule": "fucoidan", "values": [
      {"measurement": "induction of apoptosis in the IPs", "setting": "[4]", "value": "did not induce apoptosis"}
    ]},
    {"molecule": "O=C(Nc1cc(Cl)cc2c1[nH]c1cnccc12)c1cccnc1", "note": "[PS1145]", "values": [
      {"measurement": "UV-induced apoptosis in non-IPs / compared to non-IPs", "setting": "[5]", "value": "no effect"},
      {"measurement": "UV-induced apoptosis in IPs", "setting": "[5]; vs no-inhibitor control", "value": "only a small increase"},
      {"measurement": "FC-induced apoptosis in IPs (in words)", "setting": "[6]; 20 hours FC-loading, vs no inhibitor", "value": "very similar effect"},
      {"measurement": "apoptosis in IPs", "setting": "[6]", "value": "32.0±3.4", "unit": "%"}
    ]},
    {"molecule": "O=c1cc(N2CCOCC2)oc2c(-c3ccccc3)cccc12", "note": "[LY294002]", "values": [
      {"measurement": "apoptosis in IPs", "setting": "[6]", "value": "32.0±5.7", "unit": "%"}
    ]},
    {"molecule": "C[C@@H](N)[C@H]1CC[C@H](C(=O)Nc2ccncc2)CC1", "note": "[Y-27632, trans-4-[(1R)-1-aminoethyl]-N-pyridin-4-ylcyclohexanecarboxamide]", "values": [
      {"measurement": "percentage of phagocytes ingesting apoptotic macrophages", "setting": "apoptotic J774 cells", "value": "increase"}
    ]},
    {"molecule": "B1", "values": [
      {"measurement": "percent efferocytosis (ability of phagocytes to engulf apoptotic macrophages)", "setting": "[7]", "value": "promotes the ability of these phagocytes to engulf apoptotic macrophages"}
    ]}
  ]
}
